“Also recorded” adds a separate entry of the source. Structures can show the parent of a compound that is named as a salt.
Columns and labels:
[1] = test system: androgen-independent prostate cancer; experiment: Treatment of male patients with androgen-independent prostate cancer (Example 1); type: in vivo, human
Protocol: Three male patients were selected for treatment on the basis of established diagnosis with prostate cancer. All three patients had failed standard androgen withdrawal therapy. Average prostate-specific antigen (“PSA”) levels for each patient at the beginning of treatment was about 20-30 ng/ml. Hormone ablative therapy, in some cases aggressively administered as long as 36 months, had failed, manifested by a continued rise in PSA levels in each patient. […] Each patient continued to receive luteinizing hormone-releasing hormone (“LHRH”)-agonist therapy, despite tumor growth in its presence. This is considered standard therapy, as tumor growth is likely to be more aggressive if testosterone levels were allowed to return to normal in these patients.

[2] = test system: human prostate tumor cells (CWR22R); experiment: Inhibition of tumor growth in androgen-independent xenograft model (CWR22R); type: in vivo, nude mice; details: 0.85 mg/kg daily s.c., after 30 days
Text: The inventor used an androgen-independent xenograft model of human prostate tumor cells (CWR22R) to raise tumors in male and female nude mice. Tumors developed over a period of 2-3 weeks into palpable masses. 10 mice were randomly assigned to a treatment group and 10 mice were assigned to a control group. […] Mice in the control group received an injection of saline solution. After 30 days, tumors from surviving mice were surgically removed and visibly examined. Tumor size was reduced by 60% in mice from the treated group as compared to mice from the control group and female hosts.

[3] = test system: PSA; experiment: PSA levels in animals with MSKPC9 xenografts (enzymatic immunoassay); type: in vivo, nude athymic BALB/c male mice
Protocol: Levels of PSA in the blood of implanted animals were determined using an enzymatic immunoassay kit (obtained from American Qualex; San Clemente, Calif.). Blood samples were obtained prior to treatment by a small incision in the dorsal tail vein to collect 50 μl of blood using a serum-separator tube, or via a cardiac draw at sacrifice.

[4] = test system: ER-β mRNA; experiment: Real-time RT-PCR of MSKPC9 xenograft tumors, ER-β mRNA; type: in vivo; details: MSKPC9 tumor xenografts, treated vs control
Protocol: Total RNA was extracted from prostate tumors using TRIZOL reagent (available from Invitrogen Corporation; Carlsbad, Calif.). DNase I (obtained from Ambion, Inc.; Austin, Tex.) was used to rid the samples of any extraneous DNA that might interfere with the reaction. The yield was quantified spectrophotometrically. Total RNA was reverse-transcribed into cDNA and PCR was performed in the same reaction by using TAQMAN One-Step RT-PCR Master Mix Reagents Kit (obtained from Applied Biosystems; Foster City, Calif.; hereinafter “Applied Biosystems”). Probes were labeled with 6-FAM on the 5′ end and TAMRA on the 3′ end. β-actin was used as the endogenous control and normalizer. The primer pairs used are depicted in Table 1, as follows:
The PCR cycling conditions were performed for all of the samples as follows: 30 minutes at 48° C. for RT step; 10 minutes at 95° C. for […] GOLD Activation (available from Applied Biosystems); and 40 cycles for the melting (95° C., 15 seconds), and annealing/elongation (60° C. for one minute) steps. PCR reactions for each template were done in triplicate using 1 μg of total mRNA per sample. Each gene-specific primer pair was tested on standard 384-well plates. […]
The comparative Ct method (PE Applied Biosystems) was used to determine relative quantification of gene expression for each gene compared with the β-actin control. […]

[5] = test system: androgen-independent prostate cancer (AIPC); experiment: Clinical study of raloxifene in androgen-independent prostate cancer: response and survival; type: in vivo, human
Text: Between August 2001 and July 2002, twenty-one patients were enrolled into the study at the Prostate Cancer Center of Cedars-Sinai Medical Center in Los Angeles, Calif. Patients who were eligible for the study were men who had histologically confirmed adenocarcinoma of the prostate and confirmed disease progression after hormonal therapy. Patients were required to have progression of disease as evidenced by CT scan or rising PSA on two successive measurements after discontinuation of anti-androgen therapy. In addition, patients receiving androgen receptor-blocking agents as their last form of therapy had to have confirmed disease progression after drug withdrawal. Nonsurgically castrated patients continued to receive LHRH agonist while on study to maintain castrate levels of serum testosterone.
Both patients with measurable disease by either bone scan or CT scan, and evaluable disease evidenced by rising PSA were included in the study. Patients whose only evidence of disease progression was rising PSA had to have an increasing PSA on any two determinations drawn at two least weeks apart, with a greater than 20% increase from the baseline value. Other eligibility criteria included: Karnofsky performance status >70%, life expectancy >12 weeks (with at least four weeks since major surgery or radiation therapy), and at least 12 weeks for treatment with strontium-89, rhenium, or samarium-153. […] Patients with a history of uncontrolled or severe cardiovascular disease (e.g., inadequately uncontrolled hypertension, congestive heart failure, angina, or myocardial infarction within the previous year), a history of thromboembolism, a history of biliary colic or untreated cholethiasis were excluded. Patients with brain metastasis, clinical signs of brain involvement or leptomeningeal disease, dementia, psychoses, or other significant impairment of mental status were excluded. Patients with a history of another malignancy during the past five years (other than non-melanomatous skin cancer or in situ stage T1a bladder cancer), patients with active infections requiring antibiotics, or patients on concurrent commercial or investigational antineoplastic therapies were excluded. No concomitant use of prostata or saw palmetto was permitted.
(§1) Response to therapy was assessed after the first two months of therapy and then monthly thereafter. Toxicity was assessed monthly at each study visit. […] A partial response (“PR”) required a decrease by >50% of the sum of the products of the perpendicular diameters for all measurable lesions lasting at least one month, no appearance of new lesions, and a reduction in serum PSA by >50% on two consecutive occasions at least one month apart. For patients being evaluated by bone metastases, a PR required a reduction in serum PSA by >50% on two consecutive occasions at least one month apart an improvement in bone scan (reduction in intensity or size of one or more metastatic foci and no new foci of radionuclide uptake unless due to […] healing documented on plain radiograph, CT scan, or MRI scan). During this time there should have been no cancer-associated deterioration in weight, performance status, or symptoms. Progressive disease (“PD”) was defined by any of the following: (1) increase >25% in the sum of the products of the perpendicular diameters of bidimensionally measurable lesions in the sum of the transverse diameters of unidimensionally measurable lesions, (2) the appearance of new lesions, and (3) by the increase in serum PSA >50% over baseline as documented on two successive measurements >28 days apart. […] For PD to be scored by PSA criteria alone, a confirmatory PSA determination was required and obtained two weeks after the value representing a >50% increase. Patients who had improvement in one objective parameter while meeting the criteria for PD by another parameter were scored as having PD.
Treatment was administered with monthly lab draws and follow-up visits with the physician. […]

[6] = EVISTA package insert; cited from earlier work
[7] = Clinical study of raloxifene: toxicity (NCI Common Toxicity Criteria, v2.0); type: in vivo, human
Protocol: as §1
Treatment was administered with monthly lab draws and follow-up visits with the physician. […] Patients received 1 mg oral COUMADIN daily (or 0.5 mg oral COUMADIN daily if patients were already taking aspirin).
The reported urinary tract infection (“UTI”) (1) and hematuria (1) were thought to be related to the patient's underlying disease. Two grade 3 events were reported: a grade 3 arthralgia/myalgia thought to be related to the patient's recent injury, and a grade 3 elevated creatinine that was attributed to the patient's disease progression.

[8] = test system: MSKPC9 tumor xenografts; experiment: Growth of androgen independent MSKPC9 tumor xenografts; type: in vivo, nude athymic BALB/c male mice; details: 40 mg/kg 5x/wk p.o., orchiectomized mice
Protocol: Xenograft studies were performed as described in D. B. Agus et al., “Response of prostate cancer to anti-Her-2/neu antibody in androgen-dependent and -independent human xenograft models,” Cancer Res. 59(19):4761-4764 (1999). Orchiectomized seven- to eight-week-old nude athymic BALB/c male mice were obtained from the National Cancer Institute and maintained in pathogen-free conditions. Mice were inoculated subcutaneously (“s.c.”) with minced tumor tissue together with […] reconstituted basement membrane (available from BD Biosciences Discovery Labware; Bedford, Mass.) from the established androgen independent (“AI”) MSKPC9 xenograft cell lines; cell lines are described in M. Nagabhushan et al., “CWR22: the first human prostate cancer xenograft with strongly androgen-dependent and relapsed strains both in vivo and in soft agar,” Cancer Res. 56(13):3042-3046 (1996), and D. B. Agus et al., “Prostate cancer cell cycle regulators: response to androgen withdrawal and development of androgen independence,” J. Natl. Cancer Inst. 91(21):1869-76 (1999).
Tumors were measured twice weekly with vernier calipers, and tumor volumes were calculated by the formula (π/6)×(larger diameter)×(smaller diameter)^2, described in M. F. Press et al., “HER-2/neu gene amplification characterized by fluorescence in situ hybridization: poor prognosis in node-negative breast carcinomas,” J. Clin Oncol. […]

[9] = test system: androgen-independent prostate cancer; details: several previous clinical trials; cited from earlier work

O=C(c1ccc(OCCN2CCCCC2)cc1)c1c(-c2ccc(O)cc2)sc2cc(O)ccc12 [raloxifene HCl, Raloxifene hydrochloride]
bone scan of the longest treated patient ([1]; 17 months since beginning therapy): improvement in their bone scan | continued PSA of the longest treated patient ([1]; 17 months since beginning therapy, 60 mg/day orally): < 0.4 ng/mL | decline of PSA levels ([1]; three patients, 60 mg orally once a day for a minimum of 30 days, continued LHRH-agonist therapy): > 50% | reduction of tumor size vs control group [2]: 60%

O=C(c1ccc(OCCN2CCCCC2)cc1)c1c(-c2ccc(O)cc2)sc2cc(O)ccc12 [raloxifene]
PSA (per tumor volume) (FIG. 3) ([3]; MSKPC9 tumor xenografts, raloxifene treatment): increasing | levels of PSA in the blood of implanted animals (FIG. 3) ([3]; MSKPC9 xenograft animals treated with raloxifene): rising PSA levels | ER-β mRNA, difference between treatment groups [4]: no difference | tumor stabilization (non-progression), leveling off of rising serum PSA ([1]; majority of patients treated): tumor stabilization occurred | improvement in soft tissue or bone disease ([5]; 60 mg oral daily): No improvement in soft tissue or bone disease was observed | median time to disease progression ([5]; 60 mg oral daily): 8.3 weeks | patients with progressive disease at the first evaluation time point ([5]; 60 mg oral daily): thirteen of the eighteen | patients with stable disease at the first evaluation time point ([5]; 60 mg oral daily): five of eighteen | time to disease progression, range ([5]; 60 mg oral daily): 2.9-24.71 weeks | progression of soft tissue or osseous disease ([5]; 60 mg oral daily, first evaluation time point): No progression of soft tissue or osseous disease was observed | patients alive ([5]; as of July, 2003, 19 of 21): 90% | median survival ([5]; at time of analysis (November, 2002)): 10.5 months | patients discontinued due to progressive disease (rising PSA) at the second evaluation point ([5]; of the five patients with stable disease): four | tolerability in previous clinical studies [6]: well tolerated | severity of most drug related toxicities reported ([7]; 60 mg oral daily): mild (grade 1-2) | tolerability ([7]; 60 mg oral daily, with low dose COUMADIN): well tolerated | Patients experiencing drug-related toxicity: Anemia ([7]; Grade 1): 2 patients | Patients experiencing drug-related toxicity: Arthralgia/Myalgia ([7]; Grade 1): 2 patients | Patients experiencing drug-related toxicity: Bicarbonate ([7]; Grade 1): 1 patients | Patients experiencing drug-related toxicity: Bone Pain ([7]; Grade 1): 1 patients | Patients experiencing drug-related toxicity: Diarrhea ([7]; Grade 1): 1 patients | Patients experiencing drug-related toxicity: Edema ([7]; Grade 1): 1 patients | Patients experiencing drug-related toxicity: Fatigue/Malaise ([7]; Grade 1): 1 patients | Patients experiencing drug-related toxicity: Hematuria ([7]; Grade 1): 1 patients | Patients experiencing drug-related toxicity: Hot flashes ([7]; Grade 1): 2 patients | Patients experiencing drug-related toxicity: Hypercholesterolemia ([7]; Grade 1): 2 patients | Patients experiencing drug-related toxicity: Hyperglycemia ([7]; Grade 1): 1 patients | Patients experiencing drug-related toxicity: Hypoalbuminemia ([7]; Grade 1): 2 patients | Patients experiencing drug-related toxicity: Hypoglycemia ([7]; Grade 1): 1 patients | Patients experiencing drug-related toxicity: Increased Alkaline Phosphatase ([7]; Grade 1): 3 patients | Patients experiencing drug-related toxicity: Increased Creatinine ([7]; Grade 1): 1 patients | Patients experiencing drug-related toxicity: Increased SGOT (AST) ([7]; Grade 1): 1 patients | Patients experiencing drug-related toxicity: Nausea/Vomiting ([7]; Grade 1): 1 patients | Patients experiencing drug-related toxicity: Rash ([7]; Grade 1): 1 patients | Patients experiencing drug-related toxicity: UTI ([7]; Grade 1): 1 patients | Patients experiencing drug-related toxicity: Anemia ([7]; Grade 2): 1 patients | Patients experiencing drug-related toxicity: Bone Pain ([7]; Grade 2): 1 patients | Patients experiencing drug-related toxicity: Constipation ([7]; Grade 2): 2 patients | Patients experiencing drug-related toxicity: Fatigue/Malaise ([7]; Grade 2): 1 patients | Patients experiencing drug-related toxicity: Hypertriglyceridemia ([7]; Grade 2): 1 patients | Patients experiencing drug-related toxicity: Hypotension ([7]; Grade 2): 1 patients | Patients experiencing drug-related toxicity: Nausea/Vomiting ([7]; Grade 2): 1 patients | Patients experiencing drug-related toxicity: Arthralgia/Myalgia ([7]; Grade 3): 1 patients | Patients experiencing drug-related toxicity: Hyperglycemia ([7]; Grade 3): 1 patients | Patients experiencing drug-related toxicity: Increased Creatinine ([7]; Grade 3): 1 patients | mean tumor volume vs control group (FIG. 1A) [8]: reduction in mean tumor volume; also recorded: tumors were smaller | mean tumor weight vs control group (FIG. 1B) [8]: reduction in mean tumor weight

CC/C(=C(\c1ccccc1)c1ccc(OCCN(C)C)cc1)c1ccccc1 [tamoxifen]
effect on androgen-independent prostate cancer [9]: no effect

— patent publication US7425565B2, “Use of benzothiopenes to treat and prevent prostate cancer” (Cedars-Sinai Medical Center, priority 2002, dated 2008)
